pIC50: −log10 of the molar value.
Assays:
[1] = test system: Mycobacterium tuberculosis; assay: Antimycobacterial activity against Mycobacterium tuberculosis H37Rv CNCTC My 331/88 after 14 days by micromethod; format: functional; conditions: H37Rv CNCTC My 331/88, 336 h
[2] = test system: Mycobacterium tuberculosis; assay: Antimycobacterial activity against Mycobacterium tuberculosis H37Rv CNCTC My 331/88 after 21 days by micromethod; format: functional; conditions: H37Rv CNCTC My 331/88, 504 h
Mycobacterium avium [3] = assay: Antimycobacterial activity against Mycobacterium avium CNCTC My 330/80 after 14 days by micromethod; format: functional; conditions: CNCTC My 330/80, 336 h
Mycobacterium avium [4] = assay: Antimycobacterial activity against Mycobacterium avium CNCTC My 330/80 after 21 days by micromethod; format: functional; conditions: CNCTC My 330/80, 504 h
Mycobacterium kansasii [5] = assay: Antimycobacterial activity against Mycobacterium kansasii CNCTC My 235/80 after 7 days by micromethod; format: functional; conditions: CNCTC My 235/80, 168 h
Mycobacterium kansasii [6] = assay: Antimycobacterial activity against Mycobacterium kansasii CNCTC My 235/80 after 14 days by micromethod; format: functional; conditions: CNCTC My 235/80, 336 h
Mycobacterium kansasii [7] = assay: Antimycobacterial activity against Mycobacterium kansasii CNCTC My 235/80 after 21 days by micromethod; format: functional; conditions: CNCTC My 235/80, 504 h
Mycobacterium kansasii [8] = assay: Antimycobacterial activity against Mycobacterium kansasii isolate 6509/96 after 7 days by micromethod; format: functional; conditions: isolate 6509/96, 168 h
Mycobacterium kansasii [9] = assay: Antimycobacterial activity against Mycobacterium kansasii isolate 6509/96 after 14 days by micromethod; format: functional; conditions: isolate 6509/96, 336 h
Mycobacterium kansasii [10] = assay: Antimycobacterial activity against Mycobacterium kansasii isolate 6509/96 after 21 days by micromethod; format: functional; conditions: isolate 6509/96, 504 h
CHO-K1 = assay: Cytotoxicity against CHOK1 cells after 24 hrs by MTT assay; format: cell-based; conditions: Cricetulus griseus, CHO-K1, 24 h
Staphylococcus aureus [11] = assay: Antibacterial activity against Staphylococcus aureus ATCC 6538 after 24 hrs by broth microdilution method; format: functional; conditions: ATCC 6538, 24 h
Staphylococcus aureus [12] = assay: Antibacterial activity against Staphylococcus aureus ATCC 6538 after 48 hrs by broth microdilution method; format: functional; conditions: ATCC 6538, 48 h
Staphylococcus aureus [13] = assay: Antibacterial activity against methicillin-resistant Staphylococcus aureus HK5996/08 after 24 hrs by broth microdilution method; format: functional; conditions: HK5996/08, 24 h
Staphylococcus aureus [14] = assay: Antibacterial activity against methicillin-resistant Staphylococcus aureus HK5996/08 after 48 hrs by broth microdilution method; format: functional; conditions: HK5996/08, 48 h
[15] = test system: Staphylococcus epidermidis; assay: Antibacterial activity against Staphylococcus epidermidis HK6966/08 after 24 hrs by broth microdilution method; format: functional; conditions: HK6966/08, 24 h
[16] = test system: Staphylococcus epidermidis; assay: Antibacterial activity against Staphylococcus epidermidis HK6966/08 after 48 hrs by broth microdilution method; format: functional; conditions: HK6966/08, 48 h
Enterococcus sp. [17] = assay: Antibacterial activity against Enterococcus sp. HK14365/08 after 24 hrs by broth microdilution method; format: functional; conditions: HK14365/08, 24 h
Enterococcus sp. [18] = assay: Antibacterial activity against Enterococcus sp. HK14365/08 after 48 hrs by broth microdilution method; format: functional; conditions: HK14365/08, 48 h
Escherichia coli [19] = assay: Antibacterial activity against Escherichia coli ATCC 8739 after 24 hrs by broth microdilution method; format: functional; conditions: ATCC 8739, 24 h
Escherichia coli [20] = assay: Antibacterial activity against Escherichia coli ATCC 8739 after 48 hrs by broth microdilution method; format: functional; conditions: ATCC 8739, 48 h
Klebsiella pneumoniae [21] = assay: Antibacterial activity against Klebsiella pneumoniae HK11750/08 after 24 hrs by broth microdilution method; format: functional; conditions: HK11750/08, 24 h
Klebsiella pneumoniae [22] = assay: Antibacterial activity against Klebsiella pneumoniae HK11750/08 after 48 hrs by broth microdilution method; format: functional; conditions: HK11750/08, 48 h
Klebsiella pneumoniae [23] = assay: Antibacterial activity against extended spectrum beta-lactamase producing Klebsiella pneumoniae HK14368/08 after 24 hrs by broth microdilution method; format: functional; conditions: HK14368/08, 24 h
Klebsiella pneumoniae [24] = assay: Antibacterial activity against extended spectrum beta-lactamase producing Klebsiella pneumoniae HK14368/08 after 48 hrs by broth microdilution method; format: functional; conditions: HK14368/08, 48 h
Pseudomonas aeruginosa [25] = assay: Antibacterial activity against Pseudomonas aeruginosa ATCC 9027 after 24 hrs by broth microdilution method; format: functional; conditions: ATCC 9027, 24 h
Pseudomonas aeruginosa [26] = assay: Antibacterial activity against Pseudomonas aeruginosa ATCC 9027 after 48 hrs by broth microdilution method; format: functional; conditions: ATCC 9027, 48 h
Candida albicans [27] = assay: Antifungal activity against Candida albicans ATCC 44859 after 24 hrs by broth microdilution method; format: functional; conditions: ATCC 44859, 24 h
Candida albicans [28] = assay: Antifungal activity against Candida albicans ATCC 44859 after 48 hrs by broth microdilution method; format: functional; conditions: ATCC 44859, 48 h
Candida tropicalis [29] = assay: Antifungal activity against Candida tropicalis 156 after 24 hrs by broth microdilution method; format: functional; conditions: Candida tropicalis, 156, 24 h
Candida tropicalis [30] = assay: Antifungal activity against Candida tropicalis 156 after 48 hrs by broth microdilution method; format: functional; conditions: Candida tropicalis, 156, 48 h
Pichia kudriavzevii [31] = assay: Antifungal activity against Candida krusei E28 after 24 hrs by broth microdilution method; format: functional; conditions: E28, 24 h
Pichia kudriavzevii [32] = assay: Antifungal activity against Candida krusei E28 after 48 hrs by broth microdilution method; format: functional; conditions: E28, 48 h
Nakaseomyces glabratus [33] = assay: Antifungal activity against Candida glabrata 20/I after 24 hrs by broth microdilution method; format: functional
Nakaseomyces glabratus [34] = assay: Antifungal activity against Candida glabrata 20/I after 48 hrs by broth microdilution method; format: functional
Trichosporon asahii [35] = assay: Antifungal activity against Trichosporon asahii 1188 after 24 hrs by broth microdilution method; format: functional; conditions: Trichosporon asahii, 1188, 24 h
Trichosporon asahii [36] = assay: Antifungal activity against Trichosporon asahii 1188 after 48 hrs by broth microdilution method; format: functional; conditions: Trichosporon asahii, 1188, 48 h
Aspergillus fumigatus [37] = assay: Antifungal activity against Aspergillus fumigatus 231 after 24 hrs by broth microdilution method; format: functional; conditions: Aspergillus fumigatus, 231, 24 h
Aspergillus fumigatus [38] = assay: Antifungal activity against Aspergillus fumigatus 231 after 48 hrs by broth microdilution method; format: functional; conditions: Aspergillus fumigatus, 231, 48 h
Lichtheimia corymbifera [39] = assay: Antifungal activity against Absidia corymbifera 272 after 24 hrs by broth microdilution method; format: functional; conditions: Lichtheimia corymbifera, 272, 24 h
Lichtheimia corymbifera [40] = assay: Antifungal activity against Absidia corymbifera 272 after 48 hrs by broth microdilution method; format: functional; conditions: Lichtheimia corymbifera, 272, 48 h
[41] = test system: Trichophyton mentagrophytes; assay: Antifungal activity against Trichophyton mentagrophytes 445 after 72 hrs by broth microdilution method; format: functional; conditions: Trichophyton mentagrophytes, 445, 72 h
[42] = test system: Trichophyton mentagrophytes; assay: Antifungal activity against Trichophyton mentagrophytes 445 after 120 hrs by broth microdilution method; format: functional; conditions: Trichophyton mentagrophytes, 445, 120 h

Cc1ccc(Cn2nnnc2-c2cc([N+](=O)[O-])cc([N+](=O)[O-])c2)cc1
125 µM: MIC (Staphylococcus aureus [11]) | MIC (Staphylococcus aureus [12]) | MIC (Staphylococcus aureus [13]) | MIC (Staphylococcus aureus [14])
4.55: pIC50 (CHO-K1)
500 µM: MIC (Escherichia coli [19]) | MIC (Escherichia coli [20]) | MIC (Klebsiella pneumoniae [21]) | MIC (Klebsiella pneumoniae [22]) | MIC (Klebsiella pneumoniae [23]) | MIC (Klebsiella pneumoniae [24])
250 µM: MIC [15] | MIC [16] | MIC (Enterococcus sp. [17]) | MIC (Enterococcus sp. [18])
> 500 µM: MIC (Pseudomonas aeruginosa [25]) | MIC (Pseudomonas aeruginosa [26]) | MIC (Candida albicans [27]) | MIC (Candida albicans [28]) | MIC (Candida tropicalis [29]) | MIC (Candida tropicalis [30]) | MIC (Pichia kudriavzevii [31]) | MIC (Pichia kudriavzevii [32]) | MIC (Nakaseomyces glabratus [33]) | MIC (Nakaseomyces glabratus [34]) | MIC (Trichosporon asahii [35]) | MIC (Trichosporon asahii [36]) | MIC (Aspergillus fumigatus [37]) | MIC (Aspergillus fumigatus [38]) | MIC (Lichtheimia corymbifera [39]) | MIC (Lichtheimia corymbifera [40]) | MIC [41] | MIC [42]
1 µM: MIC99 [1] | MIC99 (Mycobacterium kansasii [5])
16 µM: MIC99 (Mycobacterium avium [4])
8 µM: MIC99 (Mycobacterium avium [3])
4 µM: MIC99 (Mycobacterium kansasii [7]) | MIC99 (Mycobacterium kansasii [9]) | MIC99 (Mycobacterium kansasii [10])
2 µM: MIC99 [2] | MIC99 (Mycobacterium kansasii [6]) | MIC99 (Mycobacterium kansasii [8])

O=[N+]([O-])c1cc(-c2nnn(Cc3ccccc3F)n2)cc([N+](=O)[O-])c1
250 µM: MIC [15] | MIC [16]
8 µM: MIC99 (Mycobacterium avium [3])
16 µM: MIC99 (Mycobacterium avium [4])
500 µM: MIC (Staphylococcus aureus [11]) | MIC (Staphylococcus aureus [12]) | MIC (Staphylococcus aureus [13]) | MIC (Staphylococcus aureus [14])
0.5 µM: MIC99 [1] | MIC99 [2] | MIC99 (Mycobacterium kansasii [5])
2 µM: MIC99 (Mycobacterium kansasii [7]) | MIC99 (Mycobacterium kansasii [10])
< 3.70: pIC50 (CHO-K1)
> 500 µM: MIC (Enterococcus sp. [17]) | MIC (Enterococcus sp. [18]) | MIC (Escherichia coli [19]) | MIC (Escherichia coli [20]) | MIC (Klebsiella pneumoniae [21]) | MIC (Klebsiella pneumoniae [22]) | MIC (Klebsiella pneumoniae [23]) | MIC (Klebsiella pneumoniae [24]) | MIC (Pseudomonas aeruginosa [25]) | MIC (Pseudomonas aeruginosa [26]) | MIC (Candida albicans [27]) | MIC (Candida albicans [28]) | MIC (Candida tropicalis [29]) | MIC (Candida tropicalis [30]) | MIC (Pichia kudriavzevii [31]) | MIC (Pichia kudriavzevii [32]) | MIC (Nakaseomyces glabratus [33]) | MIC (Nakaseomyces glabratus [34]) | MIC (Trichosporon asahii [35]) | MIC (Trichosporon asahii [36]) | MIC (Aspergillus fumigatus [37]) | MIC (Aspergillus fumigatus [38]) | MIC (Lichtheimia corymbifera [39]) | MIC (Lichtheimia corymbifera [40]) | MIC [41] | MIC [42]
1 µM: MIC99 (Mycobacterium kansasii [6]) | MIC99 (Mycobacterium kansasii [8]) | MIC99 (Mycobacterium kansasii [9])

O=[N+]([O-])c1cc(-c2nnn(CSc3nnnn3-c3ccc(Cl)cc3)n2)cc([N+](=O)[O-])c1
0.03 µM: MIC99 [1] | MIC99 [2]
0.25 µM: MIC99 (Mycobacterium kansasii [8])
125 µM: MIC [15] | MIC (Enterococcus sp. [17])
2 µM: MIC99 (Mycobacterium avium [3]) | MIC99 (Mycobacterium kansasii [7])
> 125 µM: MIC (Staphylococcus aureus [11]) | MIC (Staphylococcus aureus [12]) | MIC (Staphylococcus aureus [13]) | MIC (Staphylococcus aureus [14]) | MIC [16] | MIC (Enterococcus sp. [18]) | MIC (Escherichia coli [19]) | MIC (Escherichia coli [20]) | MIC (Klebsiella pneumoniae [21]) | MIC (Klebsiella pneumoniae [22]) | MIC (Klebsiella pneumoniae [23]) | MIC (Klebsiella pneumoniae [24]) | MIC (Pseudomonas aeruginosa [25]) | MIC (Pseudomonas aeruginosa [26]) | MIC (Candida albicans [27]) | MIC (Candida albicans [28]) | MIC (Candida tropicalis [29]) | MIC (Candida tropicalis [30]) | MIC (Pichia kudriavzevii [31]) | MIC (Pichia kudriavzevii [32]) | MIC (Nakaseomyces glabratus [33]) | MIC (Nakaseomyces glabratus [34]) | MIC (Trichosporon asahii [35]) | MIC (Trichosporon asahii [36]) | MIC (Aspergillus fumigatus [37]) | MIC (Aspergillus fumigatus [38]) | MIC (Lichtheimia corymbifera [39]) | MIC (Lichtheimia corymbifera [40]) | MIC [41] | MIC [42]
1 µM: MIC99 (Mycobacterium kansasii [6])
4 µM: MIC99 (Mycobacterium avium [4])
4.85: pIC50 (CHO-K1)
0.5 µM: MIC99 (Mycobacterium kansasii [5]) | MIC99 (Mycobacterium kansasii [9]) | MIC99 (Mycobacterium kansasii [10])
